The target of experiment [1] is T1, Polyadenylate-binding protein 1 (Homo sapiens, UniProt P11940). Briefly: MLLE binding blockers, Cy5 peptide tracer – biochemical, fluorescence polarization, Cy5-PAM2 peptide, secondary, miRNA deadenylation inhibitor project, dose response (AID 602260). It counts as functional. The conditions noted are these: read-out: IC50_Mean.
The target in experiment [2] is T1, Polyadenylate-binding protein 1. Nature of the experiment: MLLE domain peptide-binding blockers, IC50 – biochemical, fluorescence polarization, FITC-PAM2 peptide, dose response (AID 602259). It counts as functional. The conditions noted are these: read-out: IC50_Mean. A general note: In fluorescence polarisation assays a small probe gives low polarisation when free and higher when bound to something large.

A short description of experiment [3]: viability of HCT116 lacking mutant beta-catenin – cell-based, human colon tumor, dose response (AID 1045).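 Also: HCT116 colon tumor cells with beta catenin knocked out; cells exposed to compound for 60 hours.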 It is filed as functional.
Experiment [4] in a line: viability of PTEN-deleted HCT116 cells – cell-based, HCT116 PTEN knockout, dose response (AID 1047).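 Also: HCT116 colon tumor cells with PTEN knocked out; cells exposed to compound for 60 hours before readout; potency for loss of cell viability measured by luminescence.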 It is filed as functional.
A short description of experiment [5]: fluconazole-exposed Candida albicans growth modulators – fluorescence, retest, confirmation (AID 2467). It counts as functional, cell-based.
Experiment [6] can be described thus: NIH-3T3 fibroblast cytotoxicity, dose response, cytotoxicity control, cell-based, fluorescence, Alamar Blue, secondary assay (AID 2327).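 Also: NIH-3T3 mouse fibroblasts cultured with fluconazole at 8 µg/mL.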 It counts as functional.
A short description of experiment [7]: luciferase reporter signal suppression in cells – H4 neuroglioma cells, luminescence, dose response (AID 1990). It counts as functional, cell-based.
Experiment [8] in a line: Luminescence Cell-Based Dose Response HTS to Identify Inhibitors of 5'UTR Stem-Loop Driven Prion Protein mRNA Translation in H4 Neuroglioblastoma Cells. [Related pubchem assays: 1827 (Project Summary), 1813 (Primary HTS)]. It is filed as functional.
The nature of experiment [9]: alpha-synuclein stem-loop luciferase translation blockers – H4 neuroglioma cells, luminescence, confirmation (AID 1988). It is filed as functional, cell-based.
The nature of experiment [10]: Luminescence Cell-Based Dose Confirmation HTS to Identify Inhibitors of Platelet Dense Granule Release. [Related pubchem assays: 1663 (Primary HTS), 1678 (Summary of Project)]. It is filed as functional.
Experiment [11] has as its target Luciferin 4-monooxygenase (Photinus pyralis, UniProt P08659). Nature of the experiment: inhibition of purified Photinus pyralis luciferase – biochemical, luminescence, dose response (AID 1891).
Experiment [12] is described as follows: Luminescence Cell-Based Dose Retest to Confirm Inhibitors of Cancer Stem Cells. [Related pubchem assays (depositor defined):AID2717, AID2721]. It is filed as functional. The conditions noted are these: Homo sapiens.
Experiment [13] relates to INS1. Nature of the experiment: INS-1E survival protection against cytokine death – cell-based, luminescence, retest, dose response (AID 449756).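 Also: cell death triggered by IL-1 beta plus TNF-alpha plus IFN-gamma mixture; protective hits raise ATP signal compared with cytokine alone wells.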 It is filed as functional. The conditions noted are these: Rattus norvegicus.
Experiment [14] deals with Streptococcus. Briefly: GAS UMAA2166 growth inhibition – luminescence, BacTiterGlo, counter-screen for streptokinase expression inhibitor project, dose response (AID 1915).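 Also: potency for reduction of bacterial viability or growth.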 It counts as functional, organism-based.
Experiment [15] concerns Streptococcus sp. 'group A'. Briefly: Streptococcus pyogenes SK(-)GAS viability under kanamycin – luminescence, BacTiterGlo, confirmation, counter-screen for streptokinase expression inhibitor project, dose response (AID 1900). It is filed as functional, organism-based. For orientation: The purpose of a counterscreen is to sort out artefacts and off-target activity.
Experiment [16] deals with T2, Carboxy-terminal domain RNA polymerase II polypeptide A small phosphatase 1 (Homo sapiens, UniProt Q9GZU7).
T2 sequence (Q9GZU7 whole entry): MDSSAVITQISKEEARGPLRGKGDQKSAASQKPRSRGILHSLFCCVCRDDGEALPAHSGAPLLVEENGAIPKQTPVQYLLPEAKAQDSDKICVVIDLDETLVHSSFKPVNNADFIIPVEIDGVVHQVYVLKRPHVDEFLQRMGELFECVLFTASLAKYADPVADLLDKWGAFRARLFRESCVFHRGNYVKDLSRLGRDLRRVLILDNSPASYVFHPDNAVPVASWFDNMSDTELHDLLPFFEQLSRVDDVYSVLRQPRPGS
Briefly: CTDSP1 inhibitors, concentration-response, biochemical, absorbance readout, ultra-high-throughput screen actives (AID 540297). It is filed as functional.

Molecules are shown by their SMILES. Counter-ions that a name gives are not always drawn. The source made the active and inactive calls. Rule as the data show it, for most assays here: actives have a measured EC50 and inactives only a lower limit.

T1 sequence (P11940 whole entry, the tested form may be a part): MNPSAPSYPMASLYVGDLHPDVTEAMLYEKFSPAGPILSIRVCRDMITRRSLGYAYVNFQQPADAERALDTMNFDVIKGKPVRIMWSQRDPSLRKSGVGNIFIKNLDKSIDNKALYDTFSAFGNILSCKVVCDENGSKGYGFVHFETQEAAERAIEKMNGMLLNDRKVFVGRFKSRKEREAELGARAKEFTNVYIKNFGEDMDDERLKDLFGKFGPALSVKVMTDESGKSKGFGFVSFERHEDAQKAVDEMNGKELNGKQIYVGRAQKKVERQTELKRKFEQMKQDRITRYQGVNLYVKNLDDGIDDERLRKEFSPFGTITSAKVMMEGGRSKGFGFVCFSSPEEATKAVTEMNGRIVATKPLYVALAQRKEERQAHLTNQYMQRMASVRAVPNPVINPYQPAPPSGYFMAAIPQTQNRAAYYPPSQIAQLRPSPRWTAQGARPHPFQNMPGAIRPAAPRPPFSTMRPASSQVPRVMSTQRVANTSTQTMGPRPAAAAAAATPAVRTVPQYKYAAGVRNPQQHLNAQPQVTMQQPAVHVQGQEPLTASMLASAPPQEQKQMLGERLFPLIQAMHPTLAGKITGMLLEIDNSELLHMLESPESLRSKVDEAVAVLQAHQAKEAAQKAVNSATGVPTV
Sequence of Luciferin 4-monooxygenase (P08659 whole entry): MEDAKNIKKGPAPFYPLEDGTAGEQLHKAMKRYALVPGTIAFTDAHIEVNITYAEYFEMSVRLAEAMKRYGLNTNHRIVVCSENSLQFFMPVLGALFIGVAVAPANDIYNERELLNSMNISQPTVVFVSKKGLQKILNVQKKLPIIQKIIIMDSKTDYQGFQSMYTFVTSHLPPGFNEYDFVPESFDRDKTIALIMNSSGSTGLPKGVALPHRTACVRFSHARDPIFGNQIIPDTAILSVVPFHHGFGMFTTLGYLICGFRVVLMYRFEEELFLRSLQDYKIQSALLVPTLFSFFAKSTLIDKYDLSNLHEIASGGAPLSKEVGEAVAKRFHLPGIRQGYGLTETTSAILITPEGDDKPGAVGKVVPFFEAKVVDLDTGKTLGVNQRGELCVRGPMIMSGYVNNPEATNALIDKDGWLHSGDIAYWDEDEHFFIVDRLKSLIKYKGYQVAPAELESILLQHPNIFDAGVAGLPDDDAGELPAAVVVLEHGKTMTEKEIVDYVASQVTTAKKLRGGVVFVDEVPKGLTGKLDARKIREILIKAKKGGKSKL

`C=CCSC1=C(C#N)C(c2ccccc2OCC)C(C#N)C(=O)N1` (stereo unspecified): the IC50 in [1] and in experiment [2] was > 66 µM (inactive) throughout.
Consider `CN(C)CCCN1c2ccccc2CCc2ccc(Cl)cc21` [CLOMIPRAMINE HYDROCHLORIDE], for which the results for the EC50 in [3] and in [4] were 10.3 µM (active) and 9.89 µM (active), respectively.
Regarding `CC(C)(C)c1cc(C(=O)NNc2ccc(OC(F)(F)F)cc2)n(Cc2ccccc2)n1`, the EC50 in [5] is 3.05 µM (active); in experiment [6], > 160 µM (inactive).
With `CCOc1ccc(NC(=O)C(=O)NCCN2CCN(C(=O)c3ccc(C)cc3)CC2)cc1`, the values for the EC50 in [7], in experiment [8] and in experiment [9] were 14.7 µM (active), 64.8 µM (active) and 63.7 µM (active), respectively.
Take `Cc1c(NC(=S)NC(=O)CSc2ccc(Cl)cc2)cccc1C(=O)O`: the IC50 in experiment [1] and in experiment [2] was > 66 µM (inactive) in each case.
Consider `COc1cc2c(cc1OC)C(c1ccccc1O)N(C1CC(=O)N(c3ccccc3)C1=O)CC2` (stereo unspecified), for which the IC50 in [1] and in [2] was > 66 µM (inactive) throughout.
Regarding `COc1cccc(-n2c(N)c(C(=O)Nc3c(C)n(C)n(-c4ccccc4)c3=O)c3nc4ccccc4nc32)c1`, the EC50 in experiment [10] and in experiment [11] was > 112 µM (not active) in each case.
As to `Cc1nc(NS(=O)(=O)c2ccc(Br)cc2)c2c3c(sc2n1)CCC3`, the half-maximal effective concentration (EC50) was 1.93 µM (active) in experiment [5] and > 160 µM (inactive) in experiment [6].
The matching figures for `CCN(c1ccccc1)S(=O)(=O)c1ccc(Cl)c(NC(=O)CN2C(=O)NC3(CCCC3)C2=O)c1`: 4.42 µM (active) and > 150 µM (inconclusive).
Take `O=C(Nc1cc(S(=O)(=O)Nc2ccc(Cl)cc2)ccc1N1CCCCC1)c1ccc(F)cc1Cl`: the IC50 in experiment [1] and in experiment [2] was > 66 µM (inactive) each time. Besides, the AC50 in experiment [12] is 2.07 µM (active).
`Cc1c(C(=O)C(=O)N2c3ccc(F)cc3CCC2C)c2ccccc2n1C` (stereo unspecified): the EC50 in experiment [7] was 10.5 µM (active); in [8], 12.2 µM (active); in experiment [9] it was 5.47 µM (active).
`COc1ccccc1N1CCN(S(=O)(=O)CCNC(=O)c2ccc(Br)o2)CC1`: the EC50 in experiment [7], in [8] and in experiment [9] was > 120 µM (not active) in each case.
Take `COc1cc(SC#N)ccc1/N=C/c1c(C)[nH]n(-c2ccc(C)c(C)c2)c1=O`: the AC50 in experiment [12] was 1.41 µM (active); in [13], 4.24 µM (active). Moreover, the results for the EC50 in [3] and in experiment [4] were 8.18 µM (active) and 8.81 µM (active), respectively.
For `Cc1ccc(S(=O)(=O)CC(=O)Nc2nnc(C(C)(C)C)s2)cc1`, the IC50 in [1] and in experiment [2] was > 66 µM (inactive) throughout.
As for `C=CCN(C(=O)CCC(=O)O)C1CC(=O)N(c2ccc(OC)cc2)C1=O` (stereo unspecified), the EC50 in experiment [10] and in [11] was > 112 µM (not active) throughout.
Regarding `N#Cc1c(NC(=O)c2nc3ncccn3n2)sc2c1CCCCC2`, the EC50 in experiment [5] is 0.403 µM (active); in experiment [6] it was > 150 µM (inactive).
Turning to `CCC(=O)NCCc1nc2ccccc2n1Cc1ccccc1`, the EC50 in experiment [10] and in experiment [11] was > 112 µM (not active) each time.
As for `Cc1cccc(OCC(O)CN2CCN(S(=O)(=O)c3ccc(C)cc3C)CC2)c1` (stereo unspecified), the EC50 in [7] is > 120 µM (not active); in experiment [8], > 120 µM (not active); in [9] it was 15.9 µM (active).
Turning to `COCCN(Cc1cc2cc3c(cc2n2nnnc12)OCO3)C(=O)c1ccccc1F`, the EC50 in experiment [7], in experiment [8] and in experiment [9] was > 120 µM (not active) throughout.
`Cc1c(N=N/C(C#N)=C(\O)c2ccc(Cl)cc2)c(=O)n(-c2ccccc2)n1C`: the EC50 in experiment [7] is 9.5 µM (active); in [8], 9.48 µM (active); in [14] it was 9.3 µM (active); in [9], 8.7 µM (active); in [15], 0.528 µM (active). The AC50 in [13] is 2.08 µM (active).
With `COc1cc2[nH]c(=O)n(CCCCCC(=O)N3CC=C(c4ccccc4)CC3)c(=O)c2cc1OC`, the concentration giving a half-maximal response (EC50) was 27.9 µM (active) in experiment [3] and 21.9 µM (active) in experiment [4].
In the case of `O=C(Nc1cc(F)cc(F)c1)c1ccc(NCCCN2CCCCCC2)c([N+](=O)[O-])c1`, the results for the EC50 in [5] and in experiment [6] were > 38 µM (not active) and 105 µM (active), respectively.
On to `Cc1c(NC(=S)NC(=O)c2cccc3ccccc23)cccc1C(=O)O`, for which the IC50 in [1] and in [2] was > 66 µM (inactive) throughout.
Regarding `COc1ccc(Nc2ccc(N3C(=O)CC(C)C3=O)cc2[N+](=O)[O-])cn1` (stereo unspecified), the IC50 in experiment [1] was > 66 µM (inactive); in [2] it was 48.4 µM (inactive).
Take `Cc1ccccc1C(=O)NCCNc1ccc([N+](=O)[O-])cc1`: the EC50 in experiment [7], in experiment [8] and in experiment [9] was > 120 µM (not active) each time.
`C=CC[N+]1(C)CC[C@]23c4c5ccc(O)c4O[C@H]2C(=O)CC[C@@]3(O)[C@H]1C5` (stereo partly specified) [NALOXONE METHIODIDE]: the IC50 in [16] is 9.73 µM (active).
In the case of `CC1CCN(c2ccc(NC(=S)NC(=O)c3ccc(-c4cccc([N+](=O)[O-])c4)o3)cc2)CC1`, the IC50 in experiment [1] and in experiment [2] was > 66 µM (inactive) throughout.
For `CCOC(=O)COc1ccc(S(=O)(=O)N2CCN(c3ccccc3F)CC2)cc1`, the EC50 in experiment [5] is > 38 µM (not active); in experiment [6], > 150 µM (inconclusive).
The matching figures for `COc1ccccc1NC(=O)CN1CCN(c2ccccc2OC)CC1`: > 38 µM (not active) and > 160 µM (inactive).
For `CCc1cc2c(=O)c(-c3cnn(-c4ccccc4)c3)c(C)oc2cc1OCC(=O)Nc1ccc(F)c(F)c1`, the results for the EC50 in experiment [3] and in experiment [4] were 4.88 µM (active) and 4.93 µM (active), respectively.
Regarding `O=C(O)CC(SCC(=O)Nc1ccc(S(=O)(=O)N2CCCC2)cc1)C(=O)O` (stereo unspecified), the IC50 in experiment [1] and in experiment [2] was > 66 µM (inactive) in each case.
For `COc1ccc(C(=O)NC2(C(F)(F)F)N=C3SCCN3C2=O)cc1` (stereo unspecified), the IC50 in experiment [1] and in experiment [2] was > 66 µM (inactive) throughout.
Regarding `CC(=O)c1ccc(NC(=O)CCS(=O)(=O)c2ccc3c(c2)n(C)c(=O)c(=O)n3C)cc1`, the IC50 in experiment [16] is > 80 µM (inactive).
As for `Oc1nc(SCCOc2cccc3ccccc23)nc2ccccc12`, the results for the half-maximal effective concentration (EC50) in experiment [7], in experiment [8] and in experiment [9] were 15.4 µM (active), > 120 µM (not active) and > 120 µM (not active), respectively.
As to `CCOC(=O)C1=C(C)N(C)C(C)=C(C(=O)OCC)C1c1ccc(C(=O)OC)cc1`, the results for the EC50 in experiment [7], in experiment [8] and in experiment [9] were 35.5 µM (active), > 120 µM (not active) and 37.9 µM (active), respectively.
For `O=C(Nc1nnc(SCc2c(Cl)cccc2Cl)s1)C1CC(=O)N(c2ccc3c(c2)OCCO3)C1` (stereo unspecified), the half-maximal effective concentration (EC50) was 31.8 µM (active) in [14] and 44.2 µM (active) in [15]. Moreover, the IC50 in [16] is 4.6 µM (active).

Broadly, the EC50 is the concentration giving half of the maximal effect. By AC50 is commonly meant the concentration at which the activity in the assay is half-maximal.

Source of the values: ChEMBL document CHEMBL1201862, “PubChem BioAssay data set” (2004).
